Assays:
[1] = system: monoclonal antibody 5-21-3; assay: Immuno-dot blot of synthetic peptides with 5-21-3; format: binding, mouse; conditions: 25 ug/ml 5-21-3
Source text: The western Blot procedure described in Example 1 was employed for development of immuno-dot blots using synthetic peptides, except that synthetic peptides were fixed to nitrocellulose by direct application using Drummond lambda pipettes, and air dried prior to blocking with 20% fetal calf serum in PBS (pH 7.4). Monoclonal IgG 5-21-3, and a second anti-HIV I gp41 monoclonal antibody (IgG) 10-15-63 (which recognizes an epitope distinct and separate from the epitope recognized by 5-21-3), were purified from mouse ascites using Protein A-Sepharose, and employed at the concentrations indicated.
Immuno-dot blot results are illustrated in Figure 5 where synthetic peptides were spotted onto nitrocellulose as follows:(A) 10 ug P58-130, (B) 10 ug P67-154,(C) 6 ug P121-154 and (D) 9 ug of P126-162. The strips were reacted with 25 ug/ml monoclonal antibody 5-21-3, 25 ug/ml monoclonal antibody 10-15-63, 25 ug/ml normal mouse IgG, 2% mouse (M) anti-rp41 serum, 2% normal mouse serum (NMS), 2% Rabbit (R) anti-P58-130 serum, or 2% normal rabbit serum (NRS).

[2] = system: monoclonal antibody 5-21-3; assay: Immunoprecipitation of 125I synthetic peptides by 5-21-3; format: binding, mouse
Protocol: (§1) Synthetic peptides were radiolabeled with¹²⁵I (Amersham) by the chloramine T method (W.M. Hunter, "Radioimmunoassay" in D.M. Weir, Ed., Handbook of Experimental Immunology, [Blackwell Scientific Publications, 1973]). Generally, 2-6 ul of 100 mCi/ml ¹²⁵I were added to 10-50 ug of peptide in PBS, pH 7.4. Approximately 10 ug of freshly prepared (1 mg/ml in PBS) chloramine T were added to the mixture maintained at 4°C. After 5 min., [¹²⁵I]peptide was separated from free ¹²⁵I by passage of the reaction mixture through a 3 ml (bed volume) column of Biogel P-6 or P-2, as required. Fractions (200 ul each) containing [¹²⁵I]peptide were pooled and diluted into PBS containing 20% fetal calf serum. Rough estimations of¹²⁵I cpm bound to peptide were made by acid precipitation. An aliquot of labeled peptide was diluted into 1 ml of ice cold 50% trichloroacetic acid (TCA) overlaying a 0.45 um filter (made of mixed cellulose esters) set on a scintered glass filter connected to a vacuum apparatus. Precipitated protein was fixed onto the filter by application of vacuum, and filters were washed with ice-cold 50% TCA. Background cpm adhering non-specifically to the filter were estimated by repeating the procedure using a non-precipitating buffer. Amounts of peptide, ¹²⁵I, chloramine T, and composition of column eluting buffer were subject to change depending on conditions required to maintain solubility of each peptide.
Synthetic peptides radiolabeled with¹²⁵I were diluted into PBS (pH 7.4) containing 0.1% Triton X-100 (or other detergents where indicated) and 1.0% BSA, to yield approximately 2.5-5 X 10⁵ acid-precipitable cpm per 0.1 ml. Purified monoclonal IgG 5-21-3 and 10-15-63 were employed in the assay. Monoclonal antibodies were diluted into PBS containing 0.1% Triton X-100 (or other detergents where indicated), 1.0% BSA, and 2% normal mouse serum as a carrier immunoglobulin. Immune rabbit serum (anti-P58-130) was diluted appropriately into the same buffer except that normal rabbit serum (2%) was substituted for normal mouse serum as the carrier immunoglobulin. A reaction mixture comprising 0.1 ml [¹²⁵I] peptide (5 X l0⁵ cpm/0.1 ml) and 0.1 ml diluted antibody was incubated 1 hr at […], followed by addition of 0.1 ml of a precipitating antibody, either goat anti-mouse IgG, or goat anti-rabbit IgG, corresponding to the primary antibody. The reaction mixture was incubated 1 hr at […] and then overnight at 4°C. The precipitate was collected by centrifugation (2,000 x g, 5 min., 20°C), washed once in PBS containing 0.1% Triton X-100 and 1.0% BSA, collected by centrifugation, and counted in an LKB 128 gamma counter. […]

[3] = system: monoclonal antibody 10-15-63; assay: Immunoprecipitation of 125I synthetic peptides by 10-15-63; format: binding, mouse; conditions: 10 ug/0.2 ml reaction mixture; 0.1% Triton X-100, 1.0% BSA, carrier serum; second antibody precipitation
Protocol: Synthetic peptides were radiolabeled with¹²⁵I (Amersham) by the chloramine T method (W.M. Hunter, "Radioimmunoassay" in D.M. Weir, Ed., Handbook of Experimental Immunology, [Blackwell Scientific Publications, 1973]). Generally, 2-6 ul of 100 mCi/ml ¹²⁵I were added to 10-50 ug of peptide in PBS, pH 7.4. Approximately 10 ug of freshly prepared (1 mg/ml in PBS) chloramine T were added to the mixture maintained at 4°C. After 5 min., [¹²⁵I]peptide was separated from free ¹²⁵I by passage of the reaction mixture through a 3 ml (bed volume) column of Biogel P-6 or P-2, as required. Fractions (200 ul each) containing [¹²⁵I]peptide were pooled and diluted into PBS containing 20% fetal calf serum. Rough estimations of¹²⁵I cpm bound to peptide were made by acid precipitation. […]
(§2) Synthetic peptides radiolabeled with¹²⁵I were diluted into PBS (pH 7.4) containing 0.1% Triton X-100 (or other detergents where indicated) and 1.0% BSA, to yield approximately 2.5-5 X 10⁵ acid-precipitable cpm per 0.1 ml. […] The precipitate was collected by centrifugation (2,000 x g, 5 min., 20°C), washed once in PBS containing 0.1% Triton X-100 and 1.0% BSA, collected by centrifugation, and counted in an LKB 128 gamma counter. […]

[4] = system: Rabbit (R) anti-P58-130 serum; assay: Immunoprecipitation of 125I synthetic peptides by rabbit anti-P58-130 serum; format: binding
Protocol: as §1
as §2, with “ml. Purified monoclonal IgG 5-21-3 and 10-15-63 were employed in the assay. Monoclonal antibodies were diluted into PBS containing 0.1% Triton X-100 (or other detergents where indicated), 1.0% BSA, and 2% normal mouse serum as a carrier immunoglobulin.” for “ml.”

[5] = system: Binding of Antibody 5-21-3 to rp41; assay: Binding inhibition assay: peptides blocking 5-21-3 binding to rp41; parameters: species or system mouse
Protocol: Additional evidence for the conformational nature of the 5-21-3 epitope was obtained using binding inhibition studies, in which synthetic peptides were ranked for their ability to inhibit binding of 5-21-3 to rp41. First, the Fab dimer of an anti-gp41 monoclonal antibody was prepared by conventional methods (Goding et al., supra). Then 100 ul of a 1 mg/ml solution of the Fab dimer in bicarbonate buffer (pH 9.6) was coated onto Immulon II microtiter plates for 1 hr at 37°C. After washing with PBS containing 0.05% Tween 20, the plates were overcoated with 200 ul of 1.0% ovalbumin in bicarbonate buffer (pH 9.6) for 1 hr at 30°C. After washing, 100 ul of rp41 enriched E. coli lysate (as described in Example 3), diluted appropriately in PBS containing 0.05% Tween 20, were allowed to bind to the Fab dimer for 2 hr at 30°C. The plates were washed and stored at 4°C.
Intact monoclonal antibody 5-21-3 IgG (purified from tissue culture fluid supporting growth of the cloned cell line 5-21-3) was titrated against the bound rp41 on the plate, and an antibody concentration was selected which yielded an A₄₉₂ value of 2.0-3.0. Usually, 0.4 pmol (0.06 ug) of 5-21-3 IgG per microtiter well was employed in these assays. Stock solutions of 5-21-3 IgG were prepared in PBS containing 0.1% Triton X-100 and 0.1% SDS. Dilutions of synthetic peptides were made in the same buffer (SDS was included in these experiments to keep peptides soluble at high concentrations).
The binding inhibition assay was performed by combining 0.15 ml of 1.2 ug/ml 5-21-3 antibody stock solution with 0.15 ml of peptide at a selected peptide concentration, and incubating the reaction mixture 1 hr at room temp. Then 0.1 ml aliquots of each reaction mixture were added to each of two wells in the microtiter tray. After a 1 hr incubation at room temp., the plates were washed, and HRPO conjugated Goat anti-mouse IgG Fc was added for 1 hr at room temp. The plates were washed, and addition of OPD for color development identified the relative amounts of 5-21-3 bound to rp41 in the microtiter wells. The reaction was stopped by addition of 100 ul of 1N H₂S0₄, and the plates were read on a Dynatech II microtiter plate reader.

[6] = 10 ug/0.2 ml reaction mixture, 0.1% Triton X-100, 1.0% BSA, carrier serum, second antibody precipitation
[7] = serum 20 ul/0.2 ml reaction mixture, 0.1% Triton X-100, 1.0% BSA, carrier serum, second antibody precipitation

For “P121-154: synthetic peptide corresponding to gp41 amino acids 121-154 (DREINNYTSLIHSLIEESQNQQEKNEQELLELDK; Transmembrane protein gp41; UniProt P04578 632-665, looked up, fragment) [Peptide P121-154]”, the “dot blot reactivity with antibody 5-21-3” value ([1]; mild washing procedures) was “faint, diffuse reaction”, the “dot blot reactivity with antibody 5-21-3” value ([1]; peptide spotted on nitrocellulose) was “difficult to demonstrate” and the “SPECIFIC PRECIPITATION (CPM) 5-21-3” value [2, 6] was 40,717 CPM. The “x-fold increase of specific precipitation over non-specific precipitation, 5-21-3” value [2, 6] was 31 x-fold, the “binding of the peptide by antibody 5-21-3” value ([2]; in words, summary of Table 4) was “provided an epitope which was recognized by 5-21-3” and the “5-21-3 concentration required to demonstrate reactivity against the peptide” value ([2]; summary of Table 5) was “at least 100 ug/ml”. For the same substance, the “SPECIFIC PRECIPITATION (CPM) 10-15-63” value [3] was 371 CPM, the “x-fold increase of specific precipitation over non-specific precipitation, 10-15-63” value [3] was 1.3 x-fold and the “precipitation by rabbit anti-P58-130” value ([4]; in words, summary of Table 4) was “strong precipitator”. The “SPECIFIC PRECIPITATION (CPM) RαP58-130” value [4, 7] was 310,419 CPM, the “x-fold increase of specific precipitation over non-specific precipitation, RαP58-130” value [4, 7] was 24 x-fold and the “binding inhibition activity restored by flanking sequence, relative to P131-154” value [5] was 20-65 fold. For the same substance, the “binding inhibition activity, fold less active than P67-154” value [5] was 20 fold, the “Molar Ratio” value ([5]; at 50% inhibition of 5-21-3 binding, mean of two experiments) was 1,494 pmoles peptide/pmoles 5-21-3 and the “inhibition of 5-21-3 binding to rp41” value ([5]; in words (Fig. 6, Table 6)) was “potent inhibitor”.
